Measured values from ChEMBL document CHEMBL3885861, “Open TG-GATES”.

Species: Rattus norvegicus
Test: Open TG-GATES - Regimen: Daily Repeat
Assay type: toxicity, organism-based, Sprague-Dawley
Set-up: regimen Daily Repeat, gender Male, age 6 weeks
Details: in vivo, po, 250 mg/kg, route gavage, dose level Middle; for APTT / Bas / Eos / Fbg / Hb / Ht / Lym / MCH / MCHC / MCV / Mono / Neu / PT / Plat / RBC / Ret / WBC: tissue Blood; for KIDNEY_L / KIDNEY_R / KIDNEY_TOTAL: tissue Kidney; for LIVER: tissue Liver; for A/G / ALP / ALT / AST / BUN / CRE / Ca / Cl / DBIL / GLC / IP / K / LDH / Na / PL / RALB / TBIL / TC / TG / TP / gamma-GTP: tissue Plasma

Q: What does the source list for `CN(C/C=C/C#CC(C)(C)C)Cc1cccc2ccccc12` [TERBINAFINE]?
A: TERMINAL_BW (72 h, time 3 day): 237.2 g; APTT (72 h, time 3 day): 17.7 s; Bas (72 h, time 3 day): 1%; Eos (72 h, time 3 day): 1%; Fbg (72 h, time 3 day): 223.6 mg/dL; Hb (72 h, time 3 day): 13.6 g/dL; Ht (72 h, time 3 day): 40.4%; Lym (72 h, time 3 day): 77.2%; MCH (72 h, time 3 day): 21.7 pg; MCHC (72 h, time 3 day): 33.7%; MCV (72 h, time 3 day): 64.4 fL; Mono (72 h, time 3 day): 3.4%; Neu (72 h, time 3 day): 18%; PT (72 h, time 3 day): 11.6 s; Plat (72 h, time 3 day): 122 x10_4/uL; RBC (72 h, time 3 day): 628.6 x10_4/ul; Ret (72 h, time 3 day): 5.9%; WBC (72 h, time 3 day): 115.2 x10_2/uL; KIDNEY_L (72 h, time 3 day): 1.1 g; KIDNEY_R (72 h, time 3 day): 1.1 g; KIDNEY_TOTAL (72 h, time 3 day): 2.2 g; LIVER (72 h, time 3 day): 12.2 g; A/G (72 h, time 3 day): 1.7; ALP (72 h, time 3 day): 954.4 IU/L; ALT (72 h, time 3 day): 39.8 IU/L; AST (72 h, time 3 day): 71.4 IU/L; BUN (72 h, time 3 day): 14.8 mg/dL; CRE (72 h, time 3 day): 0.4 mg/dL; Ca (72 h, time 3 day): 10.5 mg/dL; Cl (72 h, time 3 day): 103 meq/L; DBIL (72 h, time 3 day): 0.078 mg/dL; GLC (72 h, time 3 day): 189 mg/dL; IP (72 h, time 3 day): 7.5 mg/dL; K (72 h, time 3 day): 4 meq/L; LDH (72 h, time 3 day): 197 IU/L; Na (72 h, time 3 day): 141.4 meq/L; PL (72 h, time 3 day): 141.2 mg/dL; RALB (72 h, time 3 day): 3.5 g/dL; TBIL (72 h, time 3 day): 0.1 mg/dL; TC (72 h, time 3 day): 78.6 mg/dL; TG (72 h, time 3 day): 65.6 mg/dL; TP (72 h, time 3 day): 5.5 g/dL; gamma-GTP (72 h, time 3 day): 1.4 IU/L; TERMINAL_BW ([…], time 7 day): 268.6 g; TERMINAL_BW ([…], time 14 day): 323.9 g; TERMINAL_BW ([…], time 28 day): 411.4 g; APTT ([…], time 7 day): 21.6 s; Bas ([…], time 7 day): 1%; Eos ([…], time 7 day): 0.6%; Fbg ([…], time 7 day): 206 mg/dL; Hb ([…], time 7 day): 13.7 g/dL; Ht ([…], time 7 day): 39.7%; Lym ([…], time 7 day): 81.6%; MCH ([…], time 7 day): 20.8 pg; MCHC ([…], time 7 day): 34.6%; MCV ([…], time 7 day): 60.2 fL; Mono ([…], time 7 day): 2.4%; Neu ([…], time 7 day): 13.8%; PT ([…], time 7 day): 12.2 s; Plat ([…], time 7 day): 134.5 x10_4/uL; RBC ([…], time 7 day): 660 x10_4/ul; Ret ([…], time 7 day): 4.1%; WBC ([…], time 7 day): 128 x10_2/uL; APTT ([…], time 14 day): 19.5 s; Bas ([…], time 14 day): 1%; Eos ([…], time 14 day): 1%; Fbg ([…], time 14 day): 219.6 mg/dL; Hb ([…], time 14 day): 14.1 g/dL; Ht ([…], time 14 day): 41.7%; Lym ([…], time 14 day): 82.4%; MCH ([…], time 14 day): 19.9 pg; MCHC ([…], time 14 day): 33.8%; MCV ([…], time 14 day): 58.8 fL; Mono ([…], time 14 day): 2.8%; Neu ([…], time 14 day): 13%; PT ([…], time 14 day): 11.6 s; Plat ([…], time 14 day): 124.9 x10_4/uL; RBC ([…], time 14 day): 710 x10_4/ul; Ret ([…], time 14 day): 4.3%; WBC ([…], time 14 day): 135.6 x10_2/uL; APTT ([…], time 28 day): 22 s; Bas ([…], time 28 day): 1%; Eos ([…], time 28 day): 1.2%; Fbg ([…], time 28 day): 223.8 mg/dL; Hb ([…], time 28 day): 14.5 g/dL; Ht ([…], time 28 day): 41.4%; Lym ([…], time 28 day): 81%; MCH ([…], time 28 day): 20 pg; MCHC ([…], time 28 day): 35%; MCV ([…], time 28 day): 57.1 fL; Mono ([…], time 28 day): 2.2%; Neu ([…], time 28 day): 14.8%; PT ([…], time 28 day): 12.2 s; Plat ([…], time 28 day): 121.1 x10_4/uL; RBC ([…], time 28 day): 725.4 x10_4/ul; Ret ([…], time 28 day): 3.1%; WBC ([…], time 28 day): 136.2 x10_2/uL; KIDNEY_L ([…], time 7 day): 1.3 g; KIDNEY_R ([…], time 7 day): 1.2 g; KIDNEY_TOTAL ([…], time 7 day): 2.5 g; KIDNEY_L ([…], time 14 day): 1.4 g; KIDNEY_R ([…], time 14 day): 1.4 g; KIDNEY_TOTAL ([…], time 14 day): 2.8 g; KIDNEY_L ([…], time 28 day): 1.7 g; KIDNEY_R ([…], time 28 day): 1.7 g; KIDNEY_TOTAL ([…], time 28 day): 3.4 g; LIVER ([…], time 7 day): 13.7 g; LIVER ([…], time 14 day): 16.3 g; LIVER ([…], time 28 day): 20.2 g; A/G ([…], time 7 day): 1.6; ALP ([…], time 7 day): 738.6 IU/L; ALT ([…], time 7 day): 37.6 IU/L; AST ([…], time 7 day): 70.4 IU/L; BUN ([…], time 7 day): 13.6 mg/dL; CRE ([…], time 7 day): 0.4 mg/dL; Ca ([…], time 7 day): 10.4 mg/dL; Cl ([…], time 7 day): 103.6 meq/L; DBIL ([…], time 7 day): 0.07 mg/dL; GLC ([…], time 7 day): 192 mg/dL; IP ([…], time 7 day): 7.4 mg/dL; K ([…], time 7 day): 4 meq/L; LDH ([…], time 7 day): 188.8 IU/L; Na ([…], time 7 day): 142.6 meq/L; PL ([…], time 7 day): 123.6 mg/dL; RALB ([…], time 7 day): 3.6 g/dL; TBIL ([…], time 7 day): 0.1 mg/dL; TC ([…], time 7 day): 65.2 mg/dL; TG ([…], time 7 day): 53.8 mg/dL; TP ([…], time 7 day): 5.8 g/dL; gamma-GTP ([…], time 7 day): 1 IU/L; A/G ([…], time 14 day): 1.5; ALP ([…], time 14 day): 690 IU/L; ALT ([…], time 14 day): 34 IU/L; AST ([…], time 14 day): 62.8 IU/L; BUN ([…], time 14 day): 14.2 mg/dL; CRE ([…], time 14 day): 0.4 mg/dL; Ca ([…], time 14 day): 10.6 mg/dL; Cl ([…], time 14 day): 103.6 meq/L; DBIL ([…], time 14 day): 0.088 mg/dL; GLC ([…], time 14 day): 196.4 mg/dL; IP ([…], time 14 day): 8 mg/dL; K ([…], time 14 day): 3.8 meq/L; LDH ([…], time 14 day): 155.2 IU/L; Na ([…], time 14 day): 142.2 meq/L; PL ([…], time 14 day): 128 mg/dL; RALB ([…], time 14 day): 3.6 g/dL; TBIL ([…], time 14 day): 0.1 mg/dL; TC ([…], time 14 day): 68 mg/dL; TG ([…], time 14 day): 79.8 mg/dL; TP ([…], time 14 day): 5.9 g/dL; gamma-GTP ([…], time 14 day): 1 IU/L; A/G ([…], time 28 day): 1.3; ALP ([…], time 28 day): 565.8 IU/L; ALT ([…], time 28 day): 34 IU/L; AST ([…], time 28 day): 61.2 IU/L; BUN ([…], time 28 day): 18.2 mg/dL; CRE ([…], time 28 day): 0.5 mg/dL; Ca ([…], time 28 day): 10.4 mg/dL; Cl ([…], time 28 day): 103.6 meq/L; DBIL ([…], time 28 day): 0.088 mg/dL; GLC ([…], time 28 day): 229.6 mg/dL; IP ([…], time 28 day): 7.1 mg/dL; K ([…], time 28 day): 4 meq/L; LDH ([…], time 28 day): 167.4 IU/L; Na ([…], time 28 day): 141.4 meq/L; PL ([…], time 28 day): 134 mg/dL; RALB ([…], time 28 day): 3.5 g/dL; TBIL ([…], time 28 day): 0.2 mg/dL; TC ([…], time 28 day): 72 mg/dL; TG ([…], time 28 day): 69.4 mg/dL; TP ([…], time 28 day): 6.1 g/dL; gamma-GTP ([…], time 28 day): 1.4 IU/L
